Assay results reported in PubChem BioAssay (NCI).
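Assay format: 96-well plates, 48-hour exposure. GI50: concentration for 50% inhibition of growth. TGI marks complete inhibition of growth.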

Assays:
Assay in all cases: NCI-60 cell line screen, 48 h
[1] = tested on: NCI-H226 lung
[2] = tested on: OVCAR-4 ovarian
[3] = tested on: HOP-92 NSCLC
[4] = tested on: MDA-MB-435
[5] = tested on: BT-549 breast
[6] = tested on: HT29 colon
[7] = tested on: U251 CNS
[8] = tested on: RPMI-8226 leukemia
[9] = tested on: HCC-2998 colon
[10] = tested on: EKVX NSCLC
[11] = tested on: HS 578T breast
[12] = tested on: M14 melanoma
[13] = tested on: MDA-MB-231 breast
[14] = tested on: UACC-257 melanoma
[15] = tested on: NCI-H522 lung
[16] = tested on: OVCAR-3 ovarian
[17] = tested on: LOX IMVI melanoma
[18] = tested on: SN12C renal
[19] = tested on: HOP-62 NSCLC
[20] = tested on: SW-620 colon
[21] = tested on: PC-3 prostate
[22] = tested on: UACC-62 melanoma
[23] = tested on: OVCAR-5 ovarian
[24] = tested on: UO-31 renal
[25] = tested on: SK-OV-3 ovarian
[26] = tested on: OVCAR-8 ovarian
[27] = tested on: A549 NSCLC
[28] = tested on: MCF7 breast
[29] = tested on: NCI-H23 lung
[30] = tested on: SNB-19 CNS
[31] = tested on: A498 renal
[32] = tested on: SF-539 CNS
[33] = tested on: MOLT-4 leukemia
[34] = tested on: T-47D breast
[35] = tested on: HCT-116 colon
[36] = tested on: HCT-15 colon
[37] = tested on: SF-295 CNS
[38] = tested on: DU-145 prostate
[39] = tested on: COLO 205 colon
[40] = tested on: IGROV1 ovarian
[41] = tested on: SK-MEL-28 melanoma
[42] = tested on: 786-0 renal
[43] = tested on: NCI-H460 lung
[44] = tested on: NCI/ADR-RES ovarian
[45] = tested on: SK-MEL-5 melanoma
[46] = tested on: CCRF-CEM leukemia
[47] = tested on: SR leukemia
[48] = tested on: SK-MEL-2 melanoma
[49] = tested on: HL-60(TB) leukemia
[50] = tested on: K-562 leukemia
[51] = tested on: TK-10 renal
[52] = tested on: KM12 colon
[53] = tested on: SNB-75 CNS
[54] = tested on: SF-268 CNS
[55] = tested on: ACHN renal
[56] = tested on: RXF 393 renal
[57] = tested on: MALME-3M melanoma

## COc1ccc(C2C(C#N)=C(N)Oc3c2sc2c(F)cccc32)cc1 (centres undefined)
[1]
  GI50: 14 µM
  TGI: 32.6 µM
[2]
  GI50: 8.95 µM
  TGI: 31 µM
[3]
  GI50: 4.32 µM
  TGI: 21.2 µM
[4]
  GI50: 0.315 µM
  TGI: 1.4 µM
[5]
  GI50: 4.65 µM
  TGI: 24 µM
[6]
  GI50: 3.23 µM
  TGI: 11.1 µM
[7]
  GI50: 2.74 µM
  TGI: 11.8 µM
[8]
  GI50: 2.66 µM
  TGI: 12.5 µM
[9]
  GI50: 3.04 µM
  TGI: 14 µM
[10]
  GI50: 4.7 µM
  TGI: 22.5 µM
[11]
  GI50: 2.81 µM
  TGI: 27 µM
[12]
  GI50: 1.34 µM
  TGI: 4.54 µM
[13]
  GI50: 3.77 µM
  TGI: 20.3 µM
[14]
  GI50: 14.6 µM
  TGI: 88.8 µM
[15]
  GI50: 0.799 µM
  TGI: 6.35 µM
[16]
  GI50: 1.38 µM
  TGI: 4.94 µM
[17]
  GI50: 2.4 µM
  TGI: 12.4 µM
[18]
  GI50: 3.94 µM
  TGI: 16.5 µM
[19]
  GI50: 1.75 µM
  TGI: 15.9 µM
[20]
  GI50: 1.82 µM
  TGI: 15.6 µM
[21]
  GI50: 2.36 µM
  TGI: 11.7 µM
[22]
  GI50: 2.41 µM
  TGI: 18.9 µM
[23]
  GI50: 8.53 µM
  TGI: 27.6 µM
[24]
  GI50: 4.66 µM
  TGI: 17.7 µM
[25]
  GI50: 4.35 µM
  TGI: 36.7 µM
[26]
  GI50: 3.11 µM
  TGI: 14.5 µM
[27]
  GI50: 3.12 µM
  TGI: 22.3 µM
[28]
  GI50: 0.711 µM
  TGI: 13.6 µM
[29]
  GI50: 3.6 µM
  TGI: 21.8 µM
[30]
  GI50: 2.99 µM
  TGI: 16.8 µM
[31]
  GI50: 2.1 µM
  TGI: 15.6 µM
[32]
  GI50: 2.13 µM
  TGI: 6.24 µM
[33]
  GI50: 2.62 µM
  TGI: 14 µM
[34]
  GI50: 2.57 µM
  TGI: 25.9 µM
[35]
  GI50: 2.7 µM
  TGI: 12.1 µM
[36]
  GI50: 1.73 µM
  TGI: 12.4 µM
[37]
  GI50: 2.1 µM
  TGI: 11.5 µM
[38]
  GI50: 2.96 µM
  TGI: 11.4 µM
[39]
  GI50: 2.62 µM
  TGI: 8.18 µM
[40]
  GI50: 2.9 µM
  TGI: 19.5 µM
[41]
  GI50: 8.25 µM
  TGI: 23.2 µM
[42]
  GI50: 3.34 µM
  TGI: 13 µM
[43]
  GI50: 2.59 µM
  TGI: 11.9 µM
[44]
  GI50: 0.881 µM
  TGI: 5.96 µM
[45]
  GI50: 3.93 µM
  TGI: 16.3 µM
[46]
  GI50: 1.7 µM
  TGI: 12.5 µM
[47]
  GI50: 0.706 µM
  TGI: 14.2 µM
[48]
  GI50: 3 µM
  TGI: 18.6 µM
[49]
  GI50: 1.75 µM
  TGI: 6.5 µM
[50]
  GI50: 0.493 µM
  TGI: 18.2 µM
[51]
  GI50: 5.69 µM
  TGI: 23.5 µM
[52]
  GI50: 1.62 µM
  TGI: 17.5 µM
[53]
  GI50: 2.42 µM
  TGI: 14.5 µM
[54]
  GI50: 3.95 µM
  TGI: 19.6 µM
[55]
  GI50: 6.08 µM
  TGI: 21.4 µM
[56]
  GI50: 1.81 µM
  TGI: 5.77 µM
[57]
  GI50: 11.6 µM
  TGI: 26.3 µM
